Patent US5358947A, “Angiotensin II receptor blocking 2,3-substituted pyrazolo[1,5-a]-1,3,5-triazin-4(3H)-ones” (American Cyanamid Company, priority 1993, dated 1994)
Several values for one entry are separate records, joined by “and”; a condition that tells them apart may be missing. Equal values may be shown once.

Tested on: ANGIOTENSIN II (AII) VASOPRESSOR RESPONSE
Test: AII Challenge: angiotensin II (AII) vasopressor response in conscious rats
Assay type: in vivo
Set-up: Response After AII / Change / Average Change: unit not given here
Details: for Control Before AII / Change / Response After AII: individual rat; for Control Before AII: in mmHg (unit assumed); for % Inhibition / Average Change: n = 2
In short: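 Conscious male Okamoto-Aoki SHR (16-20 weeks, ~330 g), aorta/vena cava cannulated, challenged with AII 0.05 and 0.1 ug/kg i.v. before and at 30-300 min after compound dosed i.v., i.p. or orally. Systolic pressure rise expressed relative to each rat's predose response (100%).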

[1] = 3 mg/kg i.v., AII 0.05 mcg/kg, 30 min post dose
[2] = 3 mg/kg i.v., AII 0.05 mcg/kg, 30 min post dose, listed as Ex. 17
[3] = 3 mg/kg i.v., AII 0.1 mcg/kg, 30 min post dose
[4] = 3 mg/kg i.v., AII 0.1 mcg/kg, 30 min post dose, listed as Ex. 17
[5] = 10 mg/kg i.v., AII 0.05 mcg/kg, 60 min post dose, listed as Ex. 17
[6] = 10 mg/kg i.v., AII 0.05 mcg/kg, 90 min post dose, listed as Ex. 17
[7] = 10 mg/kg i.v., AII 0.05 mcg/kg, 120 min post dose, listed as Ex. 17
[8] = 10 mg/kg i.v., AII 0.05 mcg/kg, 180 min post dose, listed as Ex. 17
[9] = 10 mg/kg i.v., AII 0.05 mcg/kg, 240 min post dose, listed as Ex. 17
[10] = 10 mg/kg i.v., AII 0.05 mcg/kg, 300 min post dose, listed as Ex. 17
[11] = 10 mg/kg i.v., AII 0.1 mcg/kg, 60 min post dose, listed as Ex. 17
[12] = 10 mg/kg i.v., AII 0.1 mcg/kg, 90 min post dose, listed as Ex. 17
[13] = 10 mg/kg i.v., AII 0.1 mcg/kg, 120 min post dose, listed as Ex. 17
[14] = 10 mg/kg i.v., AII 0.1 mcg/kg, 180 min post dose, listed as Ex. 17
[15] = 10 mg/kg i.v., AII 0.1 mcg/kg, 240 min post dose, listed as Ex. 17
[16] = 10 mg/kg i.v., AII 0.1 mcg/kg, 300 min post dose, listed as Ex. 17

SMILES: CCCCc1nc2ccnn2c(=O)n1Cc1ccc(-c2ccccc2-c2nn[nH]n2)cc1 [Example 17, 2-Butyl-3-[[2'-(1H-tetrazol-5-yl)[1,1'-biphenyl]-4-yl]methyl]pyrazolo[1,5-a]-1,3,5-triazin-4(3H) -one]
- Control Before AII [1]: 252
- Change [2]: 33 and 30
- Response After AII [2]: 285 and 265
- Control Before AII [2]: 235
- % Inhibition [1]: 34%
- Average Change [1]: 31.5
- Control Before AII [3]: 255
- Change [4]: 25 and 35
- Response After AII [4]: 280 and 260
- Control Before AII [4]: 225
- % Inhibition [3]: 37%
- Average Change [3]: 30
- Change [5]: 5 and 10
- Response After AII [5]: 255 and 245
- Control Before AII [5]: 250 and 235
- % Inhibition [5]: 84%
- Average Change [5]: 7.5
- Change [6]: 25
- Response After AII [6]: 275 and 255
- Control Before AII [6]: 250 and 230
- % Inhibition [6]: 47%
- Average Change [6]: 25
- Change [7]: 25 and 30
- Response After AII [7]: 270 and 255
- Control Before AII [7]: 245 and 225
- % Inhibition [7]: 42%
- Average Change [7]: 27.5
- Change [8]: 20 and 30
- Response After AII [8]: 260 and 240
- Control Before AII [8]: 240 and 210
- % Inhibition [8]: 47%
- Average Change [8]: 25
- Change [9]: 25 and 15
- Response After AII [9]: 270 and 250
- Control Before AII [9]: 245 and 235
- % Inhibition [9]: 58%
- Average Change [9]: 20
- Change [10]: 40 and 30
- Response After AII [10]: 290 and 245
- Control Before AII [10]: 250 and 215
- % Inhibition [10]: 26%
- Average Change [10]: 35
- Control Before AII (10 mg/kg i.v., AII 0.1 mcg/kg, 60 min post dose): 255
- Change [11]: 5 and 10
- Response After AII [11]: 260 and 235
- Control Before AII [11]: 225
- % Inhibition [11]: 84%
- Average Change [11]: 7.5
- Change [12]: 15 and 35
- Response After AII [12]: 265 and 260
- Control Before AII [12]: 250 and 225
- % Inhibition [12]: 47%
- Average Change [12]: 25
- Change [13]: 25 and 30
- Response After AII [13]: 275 and 260
- Control Before AII [13]: 250 and 230
- % Inhibition [13]: 42%
- Average Change [13]: 27.5
- Control Before AII (10 mg/kg i.v., AII 0.1 mcg/kg, 180 min post dose): 240
- Change [14]: 30 and 40
- Response After AII [14]: 270 and 265
- Control Before AII [14]: 225
- % Inhibition [14]: 26%
- Average Change [14]: 35
- Change [15]: 35 and 30
- Response After AII [15]: 290 and 270
- Control Before AII [15]: 255 and 240
- % Inhibition [15]: 32%
- Average Change [15]: 32.5
- Change [16]: 35 and 25
- Response After AII [16]: 285 and 260
- Control Before AII [16]: 250 and 235
- % Inhibition [16]: 37%
- Average Change [16]: 30
